These results are taken from patent US20090264401A1, “SUBSTITUTED PYRIMIDIN-5-CARBOXAMIDES 281” (AstraZeneca AB, priority 2008, published 2009).

The target in this experiment is T1, human 11βHSD1 enzyme (Homo sapiens, UniProt P28845).
T1 construct: baculovirus expressed N terminal 6-His tagged full length human 11βHSD1 enzyme; 6-His (N); made in house
The experiment in a line: 11βHSD1 cortisone to cortisol conversion, competitive HTRF assay. Format: biochemical. The conditions noted are these: human 11-βHSD; test concentration of 30 μM of compound. An outline of the steps: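 Enzyme was baculovirus-expressed, N-terminal 6-His-tagged full-length human 11βHSD1, purified on a copper chelate column. Compounds were added in buffer containing 1% DMSO at 10-fold final concentration.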
On the technique in general: In TR-FRET formats the signal depends on donor and acceptor labels being close together.

T1 sequence (P28845 whole entry): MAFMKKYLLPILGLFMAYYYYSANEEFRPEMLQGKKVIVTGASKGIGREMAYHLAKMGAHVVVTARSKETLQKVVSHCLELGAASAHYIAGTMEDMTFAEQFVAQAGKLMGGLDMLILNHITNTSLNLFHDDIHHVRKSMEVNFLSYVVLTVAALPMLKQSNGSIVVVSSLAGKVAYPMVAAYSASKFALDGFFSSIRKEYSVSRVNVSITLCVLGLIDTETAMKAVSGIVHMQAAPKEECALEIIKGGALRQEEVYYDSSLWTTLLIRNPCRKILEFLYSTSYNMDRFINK

On to `CC(C)(CO)Nc1ncc(C(=O)N[C@H]2C3CC4CC2C[C@@](O)(C4)C3)c(C2CCC2)n1` [Example 95, 4-cyclobutyl-N-[(2r,5s)-5-hydroxyadamantan-2-yl]-2-[(2-hydroxy-1,1-dimethylethyl)amino]pyrimidine-5-carboxamide], for which the inhibition at 30 µM turned out to be 97.3%.

With `O=C(N[C@H]1C2CC3CC1C[C@@](O)(C3)C2)c1cnc(NC2CCOCC2)nc1C1CCC1` [Example 96, 4-cyclobutyl-N-[(2r,5s)-5-hydroxyadamantan-2-yl]-2-(tetrahydro-2H-pyran-4-ylamino)pyrimidine-5-carboxamide], the inhibition at 30 µM came out at 97.4%.

For the compound `O=C(N[C@H]1C2CC3CC1C[C@@](O)(C3)C2)c1cnc(NC2CCC2)nc1C1CCC1` [Example 98, N-[(2r,5s)-5-hydroxyadamantan-2-yl] 4-cyclobutyl-2-(cyclobutylamino)pyrimidine-5-carboxamide], the inhibition at 30 µM was determined as 97.8%.

Take `C[C@@H]1CN(c2ncc(C(=O)N[C@H]3C4CC5CC3C[C@@](O)(C5)C4)c(C3CCC3)n2)C[C@H](C)N1` [Example 99, 4-cyclobutyl-2-[(3R,5S)-3,5-dimethylpiperazin-1-yl]-N-[(2r,5s)-5-hydroxyadamantan-2-yl]pyrimidine-5-carboxamide]: the inhibition at 30 µM amounted to 93.3%.

On to `C[C@@H]1CN(c2ncc(C(=O)N[C@H]3C4CC5CC3C[C@@](O)(C5)C4)c(C3CCC3)n2)C[C@@H](C)O1` [Example 101, 4-cyclobutyl-2-[(2R,6R)-2,6-dimethylmorpholin-4-yl]-N-[(2r,5s)-5-hydroxyadamantan-2-yl]pyrimidine-5-carboxamide], for which the inhibition at 30 µM stood at 102%.

On to `O=C(N[C@H]1C2CC3CC1C[C@@](O)(C3)C2)c1cnc(NC2CCCC2)nc1C1CCC1` [Example 102, 4-cyclobutyl-2-(cyclopentylamino)-N-[(2r,5s)-5-hydroxyadamantan-2-yl]pyrimidine-5-carboxamide], for which the inhibition at 30 µM worked out at 93.8%.

Regarding `O=C(NC1C2CC3CC1CC(O)(C3)C2)c1cnc(N2C[C@@H]3C[C@H]2CO3)nc1C1CCC1` (stereo partly drawn) [Example 103, 4-cyclobutyl-N-[(2r,5s)-5-hydroxyadamantan-2-yl]-2-[(1S,4S)-2-oxa-5-azabicyclo[2.2.1]hept-5-yl]pyrimidine-5-carboxamide], the inhibition at 30 µM is 95.7%.

With `O=C(N[C@H]1C2CC3CC1C[C@@](O)(C3)C2)c1cnc(NC2COC2)nc1C1CCC1` [Example 104, 4-cyclobutyl-N-[(2r,5s)-5-hydroxyadamantan-2-yl]-2-(oxetan-3-ylamino)pyrimidine-5-carboxamide], the inhibition at 30 µM was 99.3%.

In the case of `O=C(N[C@H]1C2CC3CC1C[C@@](O)(C3)C2)c1cnc(OC2CCCC2)nc1C1CCC1` [Example 106, 4-cyclobutyl-2-(cyclopentyloxy)-N-[(2r,5s)-5-hydroxyadamantan-2-yl]pyrimidine-5-carboxamide], the inhibition at 30 µM was 101%.

As for `CC(C)Oc1ncc(C(=O)N[C@H]2C3CC4CC2C[C@@](O)(C4)C3)c(C2CCC2)n1` [Example 107, 4-cyclobutyl-N-[(2r,5s)-5-hydroxyadamantan-2-yl]-2-isopropoxypyrimidine-5-carboxamide], the inhibition at 30 µM was 97.3%.

With `O=C(N[C@H]1C2CC3CC1C[C@@](O)(C3)C2)c1cnc(OC2CCC2)nc1C1CCC1` [Example 108, 4-cyclobutyl-2-(cyclobutyloxy)-N-[(2r,5s)-5-hydroxyadamantan-2-yl]pyrimidine-5-carboxamide], the inhibition at 30 µM stood at 96%.

Turning to `O=C(N[C@H]1C2CC3CC1C[C@@](O)(C3)C2)c1cnc(OC2COC2)nc1C1CCC1` [Example 109, 4-cyclobutyl-N-[(2r,5s)-5-hydroxyadamantan-2-yl]-2-(oxetan-3-yloxy)pyrimidine-5-carboxamide], the inhibition at 30 µM amounted to 90.3%.

Take `CC(C)Oc1ncc(C(=O)N[C@H]2C3CC4CC2C[C@@](O)(C4)C3)c(C2CCCC2)n1` [Example 110, 4-cyclopentyl-N-[(2r,5s)-5-hydroxyadamantan-2-yl]-2-propan-2-yloxypyrimidine-5-carboxamide]: the inhibition at 30 µM was determined as 100%.

By inhibition is commonly meant the change of the read-out against control, counted positive when it falls.
